Measured values published in patent publication US20090075921A1, “Bone/joint disease sensitivity gene and use thereof” (Riken, priority 2004, published 2009).
d = 2'-deoxy (DNA); r = 2'-OH (RNA)

What was measured:
NHAC [1] = experiment: Asporin-specific siRNA transfection in NHAC, gene expression; format: cell-based, human; settings: 24 hours, medium with 10 ng/ml TGF-β1
Experimental: Asporin-specific siRNA (Si9: […]; SEQ ID NO:35) was designed using an siRNA design support system in Takara Shuzo's website (http://www.takara-bio.co.jp/rnai/intro/htm). […] Cells were inoculated to a 12-well plate at 5×10^5 cells/well, and cultured in a DMEM/F12 containing 10% FBS, ITS, 10 ng/ml TGF-β1 and penicillin/streptomycin for 24 hours, and siRNA transfection was performed using TransIT-TKO (Takara Shuzo). Total RNA was extracted from the cells after 24 hours of cultivation, and examined for the expression of the type II collagen, aggrecan and TGF-β1 genes. […] Therefore, endogenous asporin was thought to negatively regulate the expression of cartilage substrate and the expression of TGF-β1 in NHAC.

NHAC [2] = experiment: Effects of SB431542 on gene expression induction by TGF-β1 in NHAC; format: cell-based, human; settings: SB431542 10 μM added 30 minutes before TGF-β1 10 ng/ml, 12 hours
Experimental: A time course of the expression of the asporin gene by TGF-β1 in NHAC was examined as described below. Cells were inoculated to a 12-well plate at 1×10^5 cells/well, and cultured in a DMEM/F12 containing 10% FBS until they became confluent. The medium was exchanged with a DMEM/F12 containing 0.2% FBS, and the cells were cultured for 24 hours, after which TGF-β1 (10 ng/ml) was added, total RNA was extracted over time, and the expression levels of the asporin and GAPDH genes were examined. As a result, the expression level of the asporin gene maximized when the cells were cultured in the presence of TGF-β1 (10 ng/ml) for 12 hours, and thereafter the expression level decreased over time (FIG. 46).
In the experimental system for asporin gene expression induction by TGF-β1 used in the method described in Example 54, the effects of SB431542 (Sigma) (10 μM), an inhibitor of TGF-β1 type 1 receptor phosphorylation, on the induction of the expression of the asporin, type II collagen, aggrecan, and TGF-β1 genes (12 hours), when added 30 minutes before addition of TGF-β1 (10 ng/ml), were examined.

Row | Compound | expression of the type II collagen, aggrecan and TGF-β1 genes (NHAC [1]) | induction by TGF-β1 of the expression of the asporin, type II collagen, aggrecan, and TGF-β1 genes (NHAC [2])
1 | UCCCUUCAGGAUUACCAGATT (siRNA; sugars from the 5' end r19 d2, backbone not given here) [asporin-specific siRNA] | significantly increased | 
2 | NC(=O)c1ccc(-c2nc(-c3ccc4c(c3)OCO4)c(-c3ccccn3)[nH]2)cc1 [SB431542] |  | inhibited the induction by TGF-β1 of the expression of these genes
